Literature values, collected in patent US9717704B2, “Method of treating, delaying and/or preventing Alzheimer's Disease” (Smartfish AS, priority 2013, dated 2017).

Legend:
[1] = test system: PBMCs / macrophages of AD patients; settings: in vitro (Mizwicki et al. 2013)
[2] = test system: amyloid-beta; settings: cell lines (Marambaud, Zhao et al. 2005)

SMILES | Abeta phagocytosis [1] | deregulation of inflammatory genes [1] | proteasome degradation of amyloid-beta [2]
C=C1/C(=C\C=C2/CCC[C@]3(C)[C@@H]([C@H](C)CCCC(C)(C)O)CC[C@@H]23)C[C@@H](O)C[C@@H]1O [1,25dihydroxyvitamin D3] | repair | repair the deregulation of these genes | 
Oc1ccc(/C=C/c2cc(O)cc(O)c2)cc1 [Resveratrol, 3,5,4′-trihydroxy-trans-stilbene] |  |  | promote proteasome degradation of amyloid-beta
CC/C=C\C[C@H](O)/C=C/C=C\C=C\C=C\[C@@H](O)[C@@H](O)C/C=C\CCC(=O)O [resolvin D1] | repair | repair the deregulation of these genes | 
